# Measured values reported in patent US20240076609A1, “COMPOSITIONS AND METHODS FOR CULTURING AND EXPANDING CELLS” (LIFE TECHNOLOGIES CORPORATION, priority 2017, published 2024).
# Entries after “also recorded” stand apart in the source; their conditions may differ.
# Experiments:
# Naïve T cells = test: Expansion of naïve T cells with 2-DG; type: cell-based, human; settings: 4 mM 2-DG
# Experimental: (§1) T cell activation and expansion: T cells (seeding density 1×10^6 vc/mL) were activated with DYNABEADS® Human T-Expander CD3/CD28 (Thermo Fisher Scientific, Cat. No. 11141D) at a ratio of 3 beads per T cell and cultured in serum-free medium, animal origin free medium. T cells were counted on days 5, 7, 10, and 12 on a Vi-CELL XR analyzer (Beckman Coulter, Indianapolis IN) and fed with or without 2-DG (0.25 mM, 0.5 mM, 1 mM, 2 mM, and 4 mM) and 5% human AB serum to a density of 5×10^5 vc/mL on days 3, 5, and 7 and 1×10^6 vc/mL on day 10. For some studies, CD8+ and CD4+ T cells were isolated from PBMCs by negative selection using Untouched Human CD8+ and CD4+ T Cells Kits. Naïve and non-naïve T cells were isolated from enriched T cells by positive selection using CD45RA nanobeads (Miltenyi). […]
# Non-naïve T cells = test: Expansion of non-naïve T cells with 2-DG; type: cell-based, human; settings: 4 mM 2-DG
# Experimental: as §1
# Primary human T cells [1] = test: T cell expansion with 2-DG introduced at days 0, 3, 5, 7 or at every feed; type: cell-based
# Experimental: Stimulation of T cells with DYNABEADS® Human T-Expander CD3/CD28 at a ratio of 3 beads per T cell and cultured in serum-free, animal origin free medium and culturing the cells with 2-DG. Followed by feeding the cells with 2-DG at various time points (day 3, day 5, day 7, and every time cells were fed).
# Treatment with supplement was started on day 0, 3, 5, 7 and maintained with subsequent feedings. T cells were cultured for 12 days in serum-free T cell medium and in X-VIVO™ 15 medium supplemented with 5% human AB serum.
# 2-DG was cultured with the cells on day 0, 3, 5, 7 and maintained with subsequent feedings. T cells were cultured for 12 days in serum-free T cell medium and in medium with 5% Human AB Serum.
# Primary human T cells [2] = test: Cytokine production upon re-stimulation (35-Plex Luminex) with 2-DG; type: cell-based; settings: expanded 12 days, multiplexed cytokine assay
# Description: Cytokine Profiles: Primary human T cells from normal donors were negatively isolated from PBMCs with the DYNABEADS® UNTOUCHED™ Human T Cells kit (Thermo Fisher Scientific, Cat. No. 11344D). T cells (seeding density 1×10^6 vc/mL) were activated with DYNABEADS® Human T-Expander CD3/CD28 (Thermo Fisher Scientific, Cat. No. 11141D) at a ratio of 3 beads per T cell and cultured in serum-free and animal origin free medium or control medium X-VIVO™ 15 (Lonza, Cat. No. BE02-054Q) supplemented with 5% human AB serum. T cells were counted on days 5, 7, 10, and 12 on a Vi-CELL XR analyzer (Beckman Coulter, Indianapolis IN) and fed to a density of 5×10^5 vc/mL on days 3, 5, and 7 and to a density of 1×10^6 vc/mL on day 10. DYNABEADS® were magnetically removed from cultures on day 10 and cells were spun to remove conditioned medium and rested overnight in fresh medium. […]
# T cells were expanded for 12 days and re-stimulated with DYNABEADS® Human T-Expander CD3/CD28. Cytokine production upon re-stimulation was assessed with Invitrogen Cytokine Human Magnetic 35-Plex Panel for LUMINEX™. […]
# T cells were expanded for 12 days and re-stimulated with DYNABEADS® Human T-Expander CD3/CD28. Cytokine production upon re-stimulation was assessed with Invitrogen Cytokine Human Magnetic 35-Plex Panel for LUMINEX™.
smiles,measurement,setting,value
"O=CC[C@@H](O)[C@H](O)[C@H](O)CO [2-DG, 2-Deoxy-D-Glucose]",effect of 2-DG on growth of naïve T cells,Naïve T cells; 12 days,did not affect growth of either cell type
same,Cultured Naïve T Cell Population Doublings,Naïve T cells; day 5,1.70
same,Cultured Naïve T Cell Population Doublings,Naïve T cells; day 7,3.92
same,Cultured Naïve T Cell Population Doublings,Naïve T cells; day 10,5.45
same,Cultured Naïve T Cell Population Doublings,Naïve T cells; day 12,6.13
same,effect of 2-DG on growth of non-naïve T cells,Non-naïve T cells; 12 days,did not affect growth of either cell type; also recorded: modest effect
same,Cultured Non-Naïve T Cell Population Doublings,Non-naïve T cells; day 5,−0.24
same,Cultured Non-Naïve T Cell Population Doublings,Non-naïve T cells; day 7,1.25
same,Cultured Non-Naïve T Cell Population Doublings,Non-naïve T cells; day 10,3.37
same,Cultured Non-Naïve T Cell Population Doublings,Non-naïve T cells; day 12,4.64
same,Cultured T Cell Population Doublings,"Primary human T cells [1]; 0.25 mM 2-DG at Day 0, culture day 0",0
same,Cultured T Cell Population Doublings,"Primary human T cells [1]; 0.25 mM 2-DG at Day 0, culture day 5",1.71
same,Cultured T Cell Population Doublings,"Primary human T cells [1]; 0.25 mM 2-DG at Day 0, culture day 7",3.69
same,Cultured T Cell Population Doublings,"Primary human T cells [1]; 0.25 mM 2-DG at Day 0, culture day 10",6.53
same,Cultured T Cell Population Doublings,"Primary human T cells [1]; 0.25 mM 2-DG at Day 0, culture day 12",7.47
same,Cultured T Cell Population Doublings,"Primary human T cells [1]; 0.25 mM 2-DG at Day 0, day 5",1.71
same,Cultured T Cell Population Doublings,"Primary human T cells [1]; 0.25 mM 2-DG at Day 0, day 7",3.69
same,Cultured T Cell Population Doublings,"Primary human T cells [1]; 0.25 mM 2-DG at Day 0, day 10",6.53
same,Cultured T Cell Population Doublings,"Primary human T cells [1]; 0.25 mM 2-DG at Day 0, day 12",7.47
same,Cultured T Cell Population Doublings,"Primary human T cells [1]; 0.25 mM 2-DG at Day 3, culture day 0",0
same,Cultured T Cell Population Doublings,"Primary human T cells [1]; 0.25 mM 2-DG at Day 3, culture day 5",1.90
same,Cultured T Cell Population Doublings,"Primary human T cells [1]; 0.25 mM 2-DG at Day 3, culture day 7",3.36
same,Cultured T Cell Population Doublings,"Primary human T cells [1]; 0.25 mM 2-DG at Day 3, culture day 10",5.80
same,Cultured T Cell Population Doublings,"Primary human T cells [1]; 0.25 mM 2-DG at Day 3, culture day 12",6.34
same,Cultured T Cell Population Doublings,"Primary human T cells [1]; 0.25 mM 2-DG at Day 3, day 5",1.90
same,Cultured T Cell Population Doublings,"Primary human T cells [1]; 0.25 mM 2-DG at Day 3, day 7",3.36
same,Cultured T Cell Population Doublings,"Primary human T cells [1]; 0.25 mM 2-DG at Day 3, day 10",5.80
same,Cultured T Cell Population Doublings,"Primary human T cells [1]; 0.25 mM 2-DG at Day 3, day 12",6.34
same,Cultured T Cell Population Doublings,"Primary human T cells [1]; 0.25 mM 2-DG at Day 5, culture day 0",0
same,Cultured T Cell Population Doublings,"Primary human T cells [1]; 0.25 mM 2-DG at Day 5, culture day 5",1.75
same,Cultured T Cell Population Doublings,"Primary human T cells [1]; 0.25 mM 2-DG at Day 5, culture day 7",3.50
same,Cultured T Cell Population Doublings,"Primary human T cells [1]; 0.25 mM 2-DG at Day 5, culture day 10",5.82
same,Cultured T Cell Population Doublings,"Primary human T cells [1]; 0.25 mM 2-DG at Day 5, culture day 12",6.59
same,Cultured T Cell Population Doublings,"Primary human T cells [1]; 0.25 mM 2-DG at Day 5, day 5",1.75
same,Cultured T Cell Population Doublings,"Primary human T cells [1]; 0.25 mM 2-DG at Day 5, day 7",3.50
same,Cultured T Cell Population Doublings,"Primary human T cells [1]; 0.25 mM 2-DG at Day 5, day 10",5.82
same,Cultured T Cell Population Doublings,"Primary human T cells [1]; 0.25 mM 2-DG at Day 5, day 12",6.59
same,Cultured T Cell Population Doublings,"Primary human T cells [1]; 0.25 mM 2-DG at Day 7, culture day 0",0
same,Cultured T Cell Population Doublings,"Primary human T cells [1]; 0.25 mM 2-DG at Day 7, culture day 5",1.70
same,Cultured T Cell Population Doublings,"Primary human T cells [1]; 0.25 mM 2-DG at Day 7, culture day 7",3.48
same,Cultured T Cell Population Doublings,"Primary human T cells [1]; 0.25 mM 2-DG at Day 7, culture day 10",5.83
same,Cultured T Cell Population Doublings,"Primary human T cells [1]; 0.25 mM 2-DG at Day 7, culture day 12",6.44
same,Cultured T Cell Population Doublings,"Primary human T cells [1]; 0.25 mM 2-DG at Day 7, day 5",1.70
same,Cultured T Cell Population Doublings,"Primary human T cells [1]; 0.25 mM 2-DG at Day 7, day 7",3.48
same,Cultured T Cell Population Doublings,"Primary human T cells [1]; 0.25 mM 2-DG at Day 7, day 10",5.83
same,Cultured T Cell Population Doublings,"Primary human T cells [1]; 0.25 mM 2-DG at Day 7, day 12",6.44
same,population doublings,"Primary human T cells [1]; 0.25 mM 2-DG at day 0, 3, 5, 7 and every feed",6 to 7 population doublings
same,Cultured T Cell Population Doublings,"Primary human T cells [1]; 0.25 mM 2-DG at every feed, culture day 0",0
same,Cultured T Cell Population Doublings,"Primary human T cells [1]; 0.25 mM 2-DG at every feed, culture day 5",1.61
same,Cultured T Cell Population Doublings,"Primary human T cells [1]; 0.25 mM 2-DG at every feed, culture day 7",3.80
same,Cultured T Cell Population Doublings,"Primary human T cells [1]; 0.25 mM 2-DG at every feed, culture day 10",6.03
same,Cultured T Cell Population Doublings,"Primary human T cells [1]; 0.25 mM 2-DG at every feed, culture day 12",6.82
same,Cultured T Cell Population Doublings,"Primary human T cells [1]; 0.25 mM 2-DG at every feed, day 5",1.61
same,Cultured T Cell Population Doublings,"Primary human T cells [1]; 0.25 mM 2-DG at every feed, day 7",3.80
same,Cultured T Cell Population Doublings,"Primary human T cells [1]; 0.25 mM 2-DG at every feed, day 10",6.03
same,Cultured T Cell Population Doublings,"Primary human T cells [1]; 0.25 mM 2-DG at every feed, day 12",6.82
same,cytokine production / function of the cells upon re-stimulation,Primary human T cells [2],no change in cytokine production; also recorded: does not alter the function of the cells
